Literature values as cited in patent US8680084B2, “Oral contraceptives to prevent pregnancy and diminish premenstrual symptomatology” (Teva Women's Health, Inc., priority 2001, dated 2014).

Legend:
[1] = for amount roughly equivalent to 30 μg of ethinyl estradiol: estrogen potency relative to ethinyl estradiol; for amount roughly equivalent to 1 mg of levonorgestrel: progestin potency relative to levonorgestrel
PMDD = details: daily dose of either 20 mg or 60 mg; randomized, placebo-controlled trials

Row | Compound | amount roughly equivalent to 1 mg of levonorgestrel [1] | also measured
1 | C[C@]12CC[C@@H]3c4ccc(O)cc4CC[C@H]3[C@@H]1CC[C@@H]2O [17β-estradiol] |  | amount roughly equivalent to 30 μg of ethinyl estradiol [1]: ~2 mg
2 | C#C[C@]1(O)CC[C@H]2[C@@H]3CCC4=CC(=O)CC[C@@H]4[C@H]3C(=C)C[C@@]21CC [3-ketodesogestrel] | ~1 mg | 
3 | C#C[C@]1(O)CC[C@H]2[C@@H]3CCC4=CCCC[C@@H]4[C@H]3C(=C)C[C@@]21CC [desogestrel] | ~1 mg | 
4 | CNCCC(Oc1ccc(C(F)(F)F)cc1)c1ccccc1 (stereo not shown) [Fluoxetine, fluoxetine] |  | reducing symptoms of PMDD versus placebo (PMDD): superior to placebo
5 | C#C[C@]1(OC(C)=O)CC[C@H]2[C@@H]3CCC4=CC(=O)CC[C@@H]4[C@H]3CC[C@@]21C [norethindrone acetate] | about 3.5 mg | 
6 | C#C[C@]1(O)C=C[C@H]2[C@@H]3CCC4=CC(=O)CC[C@@H]4[C@H]3CC[C@@]21CC [gestodene] | about 0.7 mg | 
7 | C#C[C@]1(O)CC[C@H]2[C@@H]3CCc4cc(OC)ccc4[C@H]3CC[C@@]21C [mestranol] |  | amount roughly equivalent to 30 μg of ethinyl estradiol [1]: ~0.06 mg
